From patent US10975063B2, “Compound, and production method thereof, and methods of treatment using the compound” (ABIVAX, priority 2009, dated 2021)

Key:
HIV-1 = assay: Inhibition of HIV-1 production (p24 antigen) in infected peripheral blood mononuclear cells (PBMCs); format: cell-based, HIV-1 (AdaM) in PBMCs of healthy donors; conditions: for Inhibition of p24 production in HIV infected PBMCs from different donors: tested molecules at 10 μM, p24 after 3 and 6 days of infection, number of donors with inhibition out of donors tested
Protocol: Within this framework, the peripheral blood mononuclear cells (PBMCs) of healthy donors are isolated by centrifugation on a FICOLL gradient. The cells are then cultivated to a density of 2.5×10^6 cells/ml with RPMI medium supplemented with 1% inactivated human AB serum, then incubated at 37° C., 5% CO2 for an additional hour. The peripheral blood mononuclear cells are then recovered and cultivated for two days in RPMI medium supplemented with 10% fetal calf serum.
A standard experiment using 96 plates to test 30 molecules in triplicates including positive and negative controls, is performed as follows:
50 10^6 Ficoll purified PBMCs (10% DMSO 90% FCS) are washed with RPMI 10% FCS and resuspended in 25 ml of RPMI 10% FCS, glutamax containing 1000 U/ml of IL2 and 5 μg/ml PHA. The cells are then incubated for 3 days at 37° C. before to be washed with 50 ml PBS then with 50 ml RPMI 10% FCS. The cells are resuspended in 100 μl of RPMI 10% FCS containing 100 U/ml IL2 and seeded in 96 wells (1.5 10^5 cells/well). Viral infection is performed with 1 ng of AdaM/well. 100 μl of tested molecules at concentration of 10 μM are added to each well. Virus production is determined by p24 antigen immunosorbent assays after 3 and 6 days of infection (Kit Innogenetics). Typically PBMCs are prepared from several healthy donors (around 11 different donors). Dose response curves were then established with selected compounds to determine IC50.

[1] = system: LMNA aberrant splicing (MutLMNA-luc cell line); assay: Luciferase assay for repression of LMNA aberrant splicing in stable 293 MutLMNA-luc cell line (293FLP LMNA LUC cells #8); format: cell-based; conditions: 48 hours, compared to control untreated MutLMNA-luc cell line, read-out: Increase of luciferase activity
Excerpt: Advantage has been taken of the luciferase system. The luciferase assay is an extremely sensitive and rapid assay. Linear results are seen over at least eight orders of magnitude of enzyme concentration. Moreover, the luciferase assay is well suited for high-throughput applications. To conduct a Mid-throughput screening (MTS) for compounds repressing LMNA aberrant splicing, we have constructed a plasmid in which exon 11, intron 11 and part of exon 12 of LMNA gene were fused with luciferase cDNA (FIG. 2). Both wild type (WtLMNA-luc)(SEQ ID NO: 1) and mutant (MutLMNA-luc)(SEQ ID NO: 2) substrate harbouring exon 11 mutation have been constructed. In these constructs we have generated a single initiation codon in exon 11 such as correct splicing will lead to luciferase expression, while aberrant splicing will skip the initiation codon and thereby prevent luciferase expression. After transfection in HeLa cells, Luciferase assays (FIG. 2B) and RT-PCR (FIG. 2C) indicate that WtLMNA-luc produces predominantly wild type splicing and large amount of luciferase activity, whereas MutLMNA-luc recapitulate the aberrant splicing profile with reduced luciferase expression (FIGS. 2 B and C, compare Wt and Mut). In order to use this system in MTS, we have generated a stable 293 cell lines containing a single integrated copy of luciferase reporter containing LMNA mutation (MutLMNA-luc cell line) using the flp system from INVITROGEN. This system allows us to perform a MTS for compounds able to enhance luciferase activity.
LMNA sequences (1278 bp of exon 11, intron 11 and 46 bp of […]) were PCR-amplified from either control or patient's cells genomic DNA with specific primer PCR fragments were purified with Concert Rapid PCR purification system (Invitrogen) and subcloned at the BamHI and EcoRI restriction sites of the pSppβm3 S1 plasmid containing the βGlobin cassette (Labourier et al., 1999—Recognition of exonic splicing enhancer sequences by the Drosophila splicing repressor RSF1. Nucleic Acids Res. 27, 2377-2386) to give the βGlo3S1LMNAwt and βGlo3S1LMNAmut constructs. The chimeric (3Glo-LMNA sequences were then inserted into the pcDNA3.1D/V5-His-TOPO vector (Invitrogen) to be used in transfection and in vitro splicing experiments. A single initiation codon ATG was kept in exon 11 of LMNA and LMNA sequences described above were fused at their 3′ end to Fyrefly luciferase cDNA (LMNAlucWT) in order that removal of intron 11 generates a transcript that encode a fusion protein harbouring luciferase activity, whereas usage of the cryptic splice site of mutated exon 11 (LMNAlucMut) will remove the initiation codon preventing luciferase expression. Both sequences were cloned in pcDNA3 Flp-In vector (Invitrogen).
A stable 293 cell line containing a single copy of LMNAlucMut minigene was obtained using the Flp-In system from (Invitrogen) according to manufacture procedure. Several clones were obtained and only one clone was used to screen the whole chemical library (293FLP LMNA LUC cells #8).
In a 96 Well Plate sterile, V-shape one put […] of drug compounds at 50 mM and then add 49.5 μl of 10% DMSO.
One pipets […] of drug at 500 μM and adds 200 μL of DMEM+Hygromycin B. At this stage the concentration of drug compound is 10 μM. One shares out 100 μl in a 96 Well Microplate sterile, flat bottom (further called luciferase plate) and 50 μl in other one (further called toxicity plate).
One washes 293FLP LMNA LUC cells once with D-PBS then adds 1 ml trypsin EDTA. Incubation at 37° C. for 2-3 minutes is proceeded. Then one adds 9 ml DMEM (with 10% FCS, P/S).
Cell concentration is brought at 10^5 cells per ml with DMEM+Hygromycin B to have 10^4 cells per 100 μl.
100 μl of suspension cells is added (at 10^4 cells per 100 μl) so final concentration of compounds is […].
Medium of the wells is gently removed then washed once by adding slowly 150 μl of D-PBS 1×. D-PBS is removed. 40 μl of PLB 1× is added and incubated at RT for 30 minutes. […]

Which results are given for `Cc1cccc(Nc2cc(C)c3ccccc3n2)n1` [Compound 45, 4-methyl-N-(6-methylpyridin-2-yl)quinolin-2-amine]?
Inhibition of p24 production in HIV infected PBMCs from different donors (HIV-1): 4 out of 4 donnors; fold induction at 5 µM [1]: 3.08

For `Cc1cc(OC(F)(F)F)ccc1Nc1ccc2ccccc2n1` [Compound 82, N-[2-methyl-4-(trifluoromethoxy)phenyl]quinolin-2-amine], which “Inhibition of p24 production in HIV infected PBMCs from different donors” value (from here on “Inhibition … from different donors”) (HIV-1) is on record?
The value was 4 out of 4 donnors.

What about the fold induction at 5 µM [1] of the same compound?
Its fold induction at 5 µM is 3.41.

How did the “Inhibition … from different donors” value (HIV-1) turn out when `Fc1cccc(Nc2ccc3ccccc3n2)c1` [Compound 86, N-(3-fluorophenyl)quinolin-2-amine] was run?
The value was 3 out of 4 donnors.

And the fold induction at 5 µM [1]?
Its fold induction at 5 µM is 2.77.

How did the IC50 (HIV-1; Human immunodeficiency virus 1, PBMC, p24 production in HIV infected PBMCs, dose response curves) turn out when `O=[N+]([O-])c1cccnc1Nc1cnc2ccccc2c1` [Compound 106, N-(3-nitropyridin-2-yl)quinolin-3-amine] was run?
The IC50 was 0.5 nM.

And the “Inhibition … from different donors” value (HIV-1)?
Its value is 6 out of 6 donnors.

What about the fold induction at 5 µM [1] of the same compound?
Its fold induction at 5 µM is 2.77.

With `Clc1ccc2nc(Nc3cnccn3)ccc2c1` [Compound 109, 6-chloro-N-(pyrazin-2-yl)quinolin-2-amine] as the compound, how does the “Inhibition … from different donors” value (HIV-1) read?
Its value is 8 out of 8 donnors.

What about the fold induction at 5 µM [1] of the same compound?
The fold induction at 5 µM was 2.79.

What does the source list for `Cc1ccnc(Nc2cnc3ccccc3n2)c1` [Compound 136, N-(4-methylpyridin-2-yl)quinoxalin-2-amine]?
Inhibition of p24 production in HIV infected PBMCs from different donors (HIV-1): 6 out of 8 donnors; fold induction at 5 µM [1]: 5.2
